SMILES strings stand for the structures.

Ki data for 32 compounds are collected here from patent publication US10472347B2, “Aminopyrazine compounds with A2A antagonist properties” (Merck Sharp & Dohme Corp., priority 2014, dated 2019).

T1 sequence (P29274 whole entry): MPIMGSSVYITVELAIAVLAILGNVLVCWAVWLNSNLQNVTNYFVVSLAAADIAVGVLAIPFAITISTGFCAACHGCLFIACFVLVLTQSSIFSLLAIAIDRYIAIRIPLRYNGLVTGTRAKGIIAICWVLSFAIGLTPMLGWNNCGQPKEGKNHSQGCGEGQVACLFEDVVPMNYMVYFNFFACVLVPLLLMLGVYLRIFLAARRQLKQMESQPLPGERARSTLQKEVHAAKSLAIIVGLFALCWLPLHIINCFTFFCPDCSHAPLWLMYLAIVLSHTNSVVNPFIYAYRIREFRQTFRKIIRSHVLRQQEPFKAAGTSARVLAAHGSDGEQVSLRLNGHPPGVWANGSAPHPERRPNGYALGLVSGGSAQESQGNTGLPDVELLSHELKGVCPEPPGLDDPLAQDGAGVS

The test has as its target T1, human A2a receptor (Homo sapiens, UniProt P29274).
T1 construct: purchased Perkin-Elmer RBHA2AM400UA; host or cells: HEK293 cells (membranes)
The test is described as follows: A2a competition binding assay, Scintillation Proximity technology. Particulars: membranes from HEK293 cells expressing human A2a receptor; Ki by Cheng-Prusoff equation. On the procedure:
Binding affinities of compounds of the invention for the human A2a receptor were determined in a competition binding assay using Scintillation Proximity technology. Thus, […] from HEK293 cells expressing the human A2a receptor were incubated with a compound of the invention at concentrations ranging from 3000 nM to 0.15 nM in a reaction mixture containing also 0.5 nM of a tritiated form of 5-amino-7-[2-phenethyl]-2-(furan-2-yl)-7H-pyrazolo[4,3-e][1,2,4]triazolo[1,5-c]pyrimidine (the tritiated compound) and 100 μg of wheat germ agglutin-coated yttrium silicate SPA beads for one hour at room temperature with agitation. The beads were then allowed to settle to the bottom of the wells for 1 hr, after which the membrane-associated radioactivity was determined by scintillation counting in a TopCount microplate reader. Ki values were determined using the Cheng-Prusoff equation.
HEK293 cells expressing the human, rat, dog or monkey adenosine 2a receptor (Purchased from Perkin-Elmer # RBHA2AM400UA).
The Tritiated compound was prepared in-house by MRL Radiochemistry according to published methods.
Wheat germ agglutinin-coated yttrium silicate SPA beads (GE Healthcare #RPNQ0023). Dilute to 25 mg/ml in assay buffer.
Assay Buffer was prepared in house: Dulbecco's calcium and magnesium free phosphate buffered saline+10 mM MgCl2
Adenosine deaminase from calf intestine, 10 mg/2 ml (Roche #10 102 105 001).
A2a antagonist standard (9-chloro-1-(2-furanyl)-[1,2,4]triazolo1,5-c]quinazolin-5-amine from Tocris Bioscience)
Make eight 1:3 serial dilutions in 100% DMSO from a 3 mM compound stock
Transfer 50 nl of compound into a 384-well OptiPlate (Perkin Elmer).
Typically, final concentrations of compound used in the assay ranged from 3000 nM to 0.152 nM.
Dilute a solution of the Tritiated compound to 1.25 nM in assay buffer. This is a 2.5× solution. The final concentration in the assay is 0.5 nM. Calculate the concentration by counting two 5 μl aliquots.
Use 0.25 ug of membrane/well. Dilute membranes to 9.7 μg/ml in assay buffer. Treat with 20 ug/ml adenosine deaminase (ADA) for 15 minutes at room temperature to degrade endogenous adenosine.
Use 100 μg/well wheat germ agglutinin-coated yttrium silicate SPA beads.
Mix ADA-treated membranes and SPA beads together for 30 min prior to assay.
To the Perkin-Elmer Optiplate-384 containing the compound titration add 20 μl of 2.5× solution of the Tritiated compound and 30 μl of the membrane-bead mixture. Incubate for one hour at room temperature with agitation.
Include total binding (assay buffer+1% DMSO) and non-specific binding (CGS15943, 1 μM) wells.
Allow the beads to settle for one hour.
A curve fitting program (i.e., Prism, Activity Base, Chemcart) is used to determine the EC50. The Ki value is calculated using the Cheng-Prusoff equation. Ki=EC50/(1+(radioligand concentration/Kd))
(In general: In a scintillation proximity assay essentially only radioactivity close to the scintillant gives light.)
`Cc1nc(C(=O)NCc2cccc(F)c2)c(N)nc1-c1ncco1` [Ex-31, 3-amino-N-(3-fluorobenzyl)-6-methyl-5-(1,3-oxazol-2-yl)pyrazine-2-carboxamide]: the Ki (in general, the dissociation constant of the complex between target and ligand, obtained from inhibition or displacement) was 0.737 nM.

With `Cc1nc(C(=O)NCc2ccc(F)cc2)c(N)nc1-c1ncco1` [Ex-32, 3-amino-N-(4-fluorobenzyl)-6-methyl-5-(1,3-oxazol-2-yl)pyrazine-2-carboxamide], the inhibition constant Ki is 1.5 nM.

On to `Cc1nc(C(=O)NCc2ccc3ccccc3n2)c(N)nc1-c1ncco1` [Ex-33, 3-amino-6-methyl-5-(1,3-oxazol-2-yl)-N-(quinolin-2-ylmethyl)pyrazine-2-carboxamide], for which the Ki was 2.8 nM.

Regarding `Cc1nc(C(=O)N2CCCC(F)(F)C2)c(N)nc1-c1ncco1` [Ex-34, 3-[(3,3-difluoropiperidin-1-yl)carbonyl]-5-methyl-6-(1,3-oxazol-2-yl)pyrazin-2-amine], the Ki came out at 847 nM.

In the case of `Cc1cc(C)nc(CNC(=O)c2nc(C)c(-c3ncco3)nc2N)c1` [Ex-35, 3-amino-N-[(4,6-dimethylpyridin-2-yl)methyl]-6-methyl-5-(1,3-oxazol-2-yl)pyrazine-2-carboxamide], the Ki was determined as 0.396 nM.

As to `Cc1nc(C(=O)NCc2cccc3c2ncn3CC(F)F)c(N)nc1-c1ncco1` [Ex-36, 3-amino-N-{[1-(2,2-difluoroethyl)-1H-benzimidazol-4-yl]methyl}-6-methyl-5-(1,3-oxazol-2-yl)pyrazine-2-carboxamide], the Ki came to 0.464 nM.

As to `Cc1nc(C(=O)NCc2nc(C)c(C)n2C)c(N)nc1-c1ncco1` [Ex-37, 3-amino-6-methyl-5-(1,3-oxazol-2-yl)-N-[(1,4,5-trimethyl-1H-imidazol-2-yl)methyl]pyrazine-2-carboxamide], the Ki turned out to be 7.77 nM.

Compound `Cc1nc(C(=O)NCc2ncn(C(C)C)c2C)c(N)nc1-c1ncco1` [Ex-38, 3-amino-6-methyl-N-{[5-methyl-1-(1-methylethyl)-1H-imidazol-4-yl]methyl}-5-(1,3-oxazol-2-yl)pyrazine-2-carboxamide] returned a Ki of 2.27 nM.

Compound `Cc1nc(C(=O)NCc2cnco2)c(N)nc1-c1ncco1` [Ex-39, 3-amino-6-methyl-5-(1,3-oxazol-2-yl)-N-(1,3-oxazol-5-ylmethyl)pyrazine-2-carboxamide] gave a Ki of 33.9 nM.

Compound `Cc1nc(C(=O)NCc2ccns2)c(N)nc1-c1ncco1` [Ex-40, 3-amino-N-(isothiazol-5-ylmethyl)-6-methyl-5-(1,3-oxazol-2-yl)pyrazine-2-carboxamide] had a Ki of 14.6 nM.

Regarding `Cc1ccc(C)c(CNC(=O)c2nc(C)c(-c3ncco3)nc2N)n1` [Ex-41, 3-amino-N-[(3,6-dimethylpyridin-2-yl)methyl]-6-methyl-5-(1,3-oxazol-2-yl)pyrazine-2-carboxamide], the Ki came to 0.593 nM.

For the compound `Cc1nc(C(=O)NCc2cc(C(F)(F)F)ccn2)c(N)nc1-c1ncco1` [Ex-42, 3-amino-6-methyl-5-(1,3-oxazol-2-yl)-N-{[4-(trifluoromethyl)pyridin-2-yl]methyl}pyrazine-2-carboxamide], the Ki was determined as 0.672 nM.

The compound `COc1cccnc1CNC(=O)c1nc(C)c(-c2ncco2)nc1N` [Ex-43, 3-amino-N-[(3-methoxypyridin-2-yl)methyl]-6-methyl-5-(1,3-oxazol-2-yl)pyrazine-2-carboxamide] displayed a Ki of 0.116 nM.

For the compound `Cc1nc(C(=O)NCc2nccn2CC(F)F)c(N)nc1-c1ncco1` [Ex-44, 3-amino-N-{[1-(2,2-difluoroethyl)-1H-imidazol-2-yl]methyl}-6-methyl-5-(1,3-oxazol-2-yl)pyrazine-2-carboxamide], the Ki came out at 0.533 nM.

`Cc1nc(C(=O)NCc2cc(Cl)ccn2)c(N)nc1-c1ncco1` [Ex-45, 3-amino-N-[(4-chloropyridin-2-yl)methyl]-6-methyl-5-(1,3-oxazol-2-yl)pyrazine-2-carboxamide]: the affinity, expressed as Ki, was 0.735 nM.

`Cc1nc(C(=O)NCc2ccncc2Cl)c(N)nc1-c1ncco1` [Ex-46, 3-amino-N-[(3-chloropyridin-4-yl)methyl]-6-methyl-5-(1,3-oxazol-2-yl)pyrazine-2-carboxamide] gave a Ki of 5.59 nM.

Consider `Cc1nc(C(=O)NCc2ncc(F)cc2Cl)c(N)nc1-c1ncco1` [Ex-47, 3-amino-N-[(3-chloro-5-fluoropyridin-2-yl)methyl]-6-methyl-5-(1,3-oxazol-2-yl)pyrazine-2-carboxamide], for which affinity was put at a Ki of 1.8 nM.

For `Cc1ccnnc1CNC(=O)c1nc(C)c(-c2ncco2)nc1N` [Ex-48, 3-amino-6-methyl-N-[(4-methylpyridazin-3-yl)methyl]-5-(1,3-oxazol-2-yl)pyrazine-2-carboxamide], the Ki is 1.01 nM.

Compound `Cc1nc(C(=O)NCc2ccc(Cl)cn2)c(N)nc1-c1ncco1` [Ex-49, 3-amino-N-[(5-chloropyridin-2-yl)methyl]-6-methyl-5-(1,3-oxazol-2-yl)pyrazine-2-carboxamide] returned a Ki of 1.26 nM.

`Cc1nc(C(=O)NCc2cccn(C)c2=O)c(N)nc1-c1ncco1` [Ex-50, 3-amino-6-methyl-N-[(1-methyl-2-oxo-1,2-dihydropyridin-3-yl)methyl]-5-(1,3-oxazol-2-yl)pyrazine-2-carboxamide]: the Ki amounted to 1.25 nM.

As for `Cc1nc(C(=O)NCc2ccccn2)c(N)nc1-c1ncco1` [Ex-51, 3-amino-6-methyl-5-(1,3-oxazol-2-yl)-N-(pyridin-2-ylmethyl)pyrazine-2-carboxamide], the Ki is 0.717 nM.

As to `Cc1nc(C(=O)NCc2cccc[n+]2[O-])c(N)nc1-c1ncco1` [Ex-52, 3-amino-6-methyl-5-(1,3-oxazol-2-yl)-N-[(1-oxidopyridin-2-yl)methyl]pyrazine-2-carboxamide], the Ki was 4.88 nM.

With `Cc1nc(C(=O)NCc2ccc(F)nc2)c(N)nc1-c1ncco1` [Ex-53, 3-amino-N-[(6-fluoropyridin-3-yl)methyl]-6-methyl-5-(1,3-oxazol-2-yl)pyrazine-2-carboxamide], the Ki is 26.1 nM.

Take `Cc1nc(C(=O)NCc2cc(C(F)(F)F)cc(Cl)n2)c(N)nc1-c1ncco1` [Ex-54, 3-amino-N-{[6-chloro-4-(trifluoromethyl)pyridin-2-yl]methyl}-6-methyl-5-(1,3-oxazol-2-yl)pyrazine-2-carboxamide]: the affinity, expressed as Ki, was 1.77 nM.

Regarding `COc1ccc(CNC(=O)c2nc(C)c(-c3ncco3)nc2N)nc1C(F)(F)F` [Ex-55, 3-amino-N-{[5-methoxy-6-(trifluoromethyl)pyridin-2-yl]methyl}-6-methyl-5-(1,3-oxazol-2-yl)pyrazine-2-carboxamide], affinity was put at a Ki of 3.89 nM.

In turn, `Cc1cnnc(CNC(=O)c2nc(C)c(-c3ncco3)nc2N)c1` [Ex-56, 3-amino-6-methyl-N-[(5-methylpyridazin-3-yl)methyl]-5-(1,3-oxazol-2-yl)pyrazine-2-carboxamide] showed a Ki of 21.5 nM.

In turn, `Cc1nc(C(=O)NCc2ccc(F)cn2)c(N)nc1-c1ncco1` [Ex-57, 3-amino-N-[(5-fluoropyridin-2-yl)methyl]-6-methyl-5-(1,3-oxazol-2-yl)pyrazine-2-carboxamide] had a Ki of 1.03 nM.

Turning to `Cc1nc(C(=O)NCc2nccc(OCC(F)(F)F)c2C)c(N)nc1-c1ncco1` [Ex-58, 3-amino-6-methyl-N-{[3-methyl-4-(2,2,2-trifluoroethoxy)pyridin-2-yl]methyl}-5-(1,3-oxazol-2-yl)pyrazine-2-carboxamide], the Ki stood at 4.56 nM.

With `Cc1nc(C(=O)NCc2ccc(C(F)(F)F)cn2)c(N)nc1-c1ncco1` [Ex-59, 3-amino-6-methyl-5-(1,3-oxazol-2-yl)-N-{[5-(trifluoromethyl)pyridin-2-yl]methyl}pyrazine-2-carboxamide], the Ki was 14.8 nM.

In the case of `Cc1nc(C(=O)NCC(C)(C)c2ccncc2)c(N)nc1-c1ncco1` [Ex-60, 3-amino-6-methyl-N-(2-methyl-2-pyridin-4-ylpropyl)-5-(1,3-oxazol-2-yl)pyrazine-2-carboxamide], the inhibitory constant (Ki) was 9.2 nM.

The compound `Cc1nc(C(=O)NCc2cc(F)ccn2)c(N)nc1-c1ncco1` [Ex-61, 3-amino-N-[(4-fluoropyridin-2-yl)methyl]-6-methyl-5-(1,3-oxazol-2-yl)pyrazine-2-carboxamide] showed a Ki of 2.46 nM.

As for `Cc1nc(C(=O)NCc2ncc(F)cc2F)c(N)nc1-c1ncco1` [Ex-62, 3-amino-N-[(3,5-difluoropyridin-2-yl)methyl]-6-methyl-5-(1,3-oxazol-2-yl)pyrazine-2-carboxamide], the affinity corresponds to a Ki of 0.622 nM.
